Test results reported in paper PMC9293909 (Nature Communications, 2022).
Where “and” joins values, the source holds several entries; their conditions need not be identical. Identical values can stand only once.

Legend:
hA1R [1] = target: T1, hA1R (Homo sapiens, UniProt P30542); experiment: Radioligand displacement of [3H]-DPCPX, CHO-K1-hA1R membranes; type: binding; set-up: expressed in transfected cells; [3H]DPCPX binding, agonist displacement (Fig. 1bii): unit not given here; conditions: for [3H]DPCPX binding, agonist displacement (Fig. 1bii): individual repeats and mean
T1 sequence (P30542 1-326): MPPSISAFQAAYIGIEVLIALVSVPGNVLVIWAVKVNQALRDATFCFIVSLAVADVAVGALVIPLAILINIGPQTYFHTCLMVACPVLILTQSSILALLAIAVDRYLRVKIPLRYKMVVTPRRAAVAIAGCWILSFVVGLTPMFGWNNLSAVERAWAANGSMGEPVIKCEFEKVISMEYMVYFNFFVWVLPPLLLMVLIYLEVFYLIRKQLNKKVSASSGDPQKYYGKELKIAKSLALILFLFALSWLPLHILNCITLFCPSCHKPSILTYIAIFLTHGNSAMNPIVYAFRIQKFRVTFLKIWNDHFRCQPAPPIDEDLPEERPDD
Method: Radioligand displacement assays were conducted using crude membrane preparations (100 μg protein per tube) acquired from homogenisation of CHO-K1-hA1R cells in ice-cold buffer (2 mM MgCl2, 20 mM HEPES, pH 7.4). […] Non-specific binding was determined in the presence of 10 μM DPCPX. Membrane incubations were conducted in Sterilin™ scintillation vials (Thermo Fisher Scientific; Wilmington, Massachusetts, USA) for 60 min at room temperature. Free radioligand was separated from bound radioligand by filtration through Whatman® glass microfiber GF/B 25 mm filters (Sigma-Aldrich). Each filter was then placed in a Sterilin™ scintillation vial and radioactivity determined by: addition of 4 mL of Ultima Gold XR liquid scintillant (PerkinElmer), overnight incubation at room temperature and the retained radioactivity determined using a Beckman Coulter LS 6500 Multi-purpose scintillation counter (Beckman Coulter Inc.; Indiana, USA).
Radioligand displacement curves were fitted to the one-site competition binding equation yielding log(Ki) values.

hA1R:Goa = target: T2, hA1R:Goa (Homo sapiens, UniProt P30542); experiment: cAMP inhibition in PTX-treated CHO-K1-hA1R cells with PTX-insensitive Goa (incl. Schild analysis, bias); type: cell-based; conditions: for Emax: inhibition of forskolin-stimulated cAMP; for Bias factor (Δ(τ/KA)) Goa: relative to adenosine, operational model
T2 construct: host or cells: CHO-K1-hA1R (made in-house), PTX-treated
T2 sequence (P30542 1-326): T1 sequence (P30542 1-326)
Method: Cells were then incubated for 24 h before addition of 100 ng/ml PTX, to inhibit activity of endogenous Gαi/o, and then incubated for a further 16-18 h. Transfected cells were then assayed as per cAMP inhibition experiments, but co-stimulated with agonist and 100 nM forskolin.
Statistical significance was tested as indicated in the text using paired or unpaired two-tailed t-tests or one-way or two-way ANOVAs with repeated measures (RM) as appropriate. Bonferroni corrections for multiple comparisons were performed. All in vitro cell signalling assay data was analysed using Prism 8.4 (Graphpad software, San Diego, CA), with all concentration-response curves being fitted using a 3 parameter logistic equation to calculate response range and IC50. All cAMP data was normalised to a forskolin concentration-response curve ran in parallel to each assay.

hA1R [2] = target: T1, hA1R; experiment: cAMP inhibition in CHO-K1-hA1R cells (forskolin co-stimulation); conditions: for cAMP levels, co-stimulation with 1 μM forskolin and agonist (Fig. 1biii): individual repeats and mean; for Range hA1R: range of response as percentage of response to 10 μM forskolin
Method: CHO cell lines expressing ARs of interest (including mutants of the hA1R) were routinely cultured in Ham’s F-12 nutrient mix supplemented with 10% foetal bovine serum (FBS), at 37 °C with 5% CO2, in a humidified atmosphere.

[3] = tested on: postsynaptic A1Rs, CA1 pyramidal cells; experiment: Whole-cell patch-clamp, membrane potential of CA1 pyramidal cells; type: cell-based, rat
Method: Rats were kept on a 12-hour light-dark cycle with slices made 90 min after entering the light cycle. […] The brain was removed, cut down the midline and the two sides of the brain stuck down to a metal base plate using cyanoacrylate glue. […] Slices were stored at 34 °C for 1–6 h in aCSF (1 mM MgCl2, 2 mM CaCl2) before use.
A slice was transferred to the recording chamber and perfused at 3 ml min^−1 with aCSF at 32 ± 0.5 °C. Slices were visualised using IR-DIC optics with an Olympus BX151W microscope (Scientifica) and a CCD camera (Hitachi). […] Voltage and current recordings were obtained using an Axon Multiclamp 700B amplifier (Molecular Devices, USA) and digitised at 20 KHz. Data acquisition and analysis was performed using pClamp 10 (Molecular Devices, USA). For voltage-clamp experiments, CA1 pyramidal cells were held at −60 mV. Peptides to interfere with G protein signalling were introduced via the patch pipette into the recorded cell.

hA3R = target: T3, hA3R (Homo sapiens, UniProt P0DMS8); experiment: Binding affinity at hA3R (Supplementary Table 1); conditions: tracer not given (footnote d); read-out: pKi hA3R (converted)
T3 construct: expressed in transfected cells; host or cells: CHO-K1
T3 sequence (P0DMS8 1-318): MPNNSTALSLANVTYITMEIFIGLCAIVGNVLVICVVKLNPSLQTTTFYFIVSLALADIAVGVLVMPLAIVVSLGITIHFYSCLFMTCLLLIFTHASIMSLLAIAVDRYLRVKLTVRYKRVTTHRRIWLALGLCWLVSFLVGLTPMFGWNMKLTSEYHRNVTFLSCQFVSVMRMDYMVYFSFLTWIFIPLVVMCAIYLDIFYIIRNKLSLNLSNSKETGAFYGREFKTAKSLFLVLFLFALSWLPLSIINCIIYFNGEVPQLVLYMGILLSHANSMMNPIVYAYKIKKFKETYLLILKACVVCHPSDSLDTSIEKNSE

SMILES: OC[C@H]1O[C@@H](n2cnc3c(NC4CCCC4)ncnc32)[C@H](O)[C@@H]1O [CPA, N^6-Cyclopentyladenosine]
- [3H]DPCPX binding, agonist displacement (Fig. 1bii) (hA1R [1]; Log [Agonist] -4 (printed 100 nM), individual repeat): 20.2642 and 4.4733 and -15.7273 and -5.192 and 4.0456
- [3H]DPCPX binding, agonist displacement (Fig. 1bii) (hA1R [1]; Log [Agonist] -4 (printed 100 nM), mean): 1.6
- [3H]DPCPX binding, agonist displacement (Fig. 1bii) (hA1R [1]; Log [Agonist] -5 (10 nM [sic]), individual repeat): 11.1387 and 7.285 and -0.8835 and -5.9519 and 7.949
- [3H]DPCPX binding, agonist displacement (Fig. 1bii) (hA1R [1]; Log [Agonist] -5 (10 nM [sic]), mean): 3.9
- [3H]DPCPX binding, agonist displacement (Fig. 1bii) (hA1R [1]; Log [Agonist] -6): 33.4844 and 35.0135 and 37.1916 and 34.6828 and 36.5376
- [3H]DPCPX binding, agonist displacement (Fig. 1bii) (hA1R [1]; Log [Agonist] -6, mean): 35.4
- [3H]DPCPX binding, agonist displacement (Fig. 1bii) (hA1R [1]; Log [Agonist] -7 (0.1 nM [sic])): 68.5034 and 65.597 and 37.2069 and 75.7359 and 85.6552
- [3H]DPCPX binding, agonist displacement (Fig. 1bii) (hA1R [1]; Log [Agonist] -7 (0.1 nM [sic]), mean): 66.5
- [3H]DPCPX binding, agonist displacement (Fig. 1bii) (hA1R [1]; Log [Agonist] -8 (0.01 nM [sic])): 82.5188 and 76.3158 and 97.3862 and 99.1923 and 79.3577
- [3H]DPCPX binding, agonist displacement (Fig. 1bii) (hA1R [1]; Log [Agonist] -8 (0.01 nM [sic]), mean): 87.0
- [3H]DPCPX binding, agonist displacement (Fig. 1bii) (hA1R [1]; Log [Agonist] -9 (0.001 nM [sic])): 135.427 and 110.895 and 123.979 and 110.925 and 95.1958
- [3H]DPCPX binding, agonist displacement (Fig. 1bii) (hA1R [1]; Log [Agonist] -9 (0.001 nM [sic]), mean): 115.3
- Emax (hA1R:Goa): -13.7%
- Bias factor (Δ(τ/KA)) Goa (hA1R:Goa): 0.6126
- cAMP levels, co-stimulation with 1 μM forskolin and agonist (Fig. 1biii) (hA1R [2]; Log [Agonist] -6): 40.1 and 40.118 and 40.1062 and 40.1555 and 40.1419 and 40.1089 and 40.1054 and 40.1072 and 40.1135 and 40.1134 and 40.1344
- cAMP levels, co-stimulation with 1 μM forskolin and agonist (Fig. 1biii) (hA1R [2]; Log [Agonist] -7): 40.4 and 40.3687 and 40.2515 and 40.737 and 40.6042 and 40.2784 and 40.2436 and 40.2615 and 40.3242 and 40.3231 and 40.5303
- cAMP levels, co-stimulation with 1 μM forskolin and agonist (Fig. 1biii) (hA1R [2]; Log [Agonist] -8): 42.9 and 42.7424 and 41.659 and 45.8766 and 44.7904 and 41.911 and 41.5838 and 41.7525 and 42.336 and 42.3262 and 44.1655
- cAMP levels, co-stimulation with 1 μM forskolin and agonist (Fig. 1biii) (hA1R [2]; Log [Agonist] -9): 57.8 and 57.9585 and 52.2853 and 68.2239 and 65.3823 and 53.7555 and 51.8264 and 52.843 and 56.017 and 55.9674 and 63.4546
- cAMP levels, co-stimulation with 1 μM forskolin and agonist (Fig. 1biii) (hA1R [2]; Log [Agonist] -10): 81.2 and 82.0022 and 77.8788 and 85.9249 and 85.1011 and 79.182 and 77.4265 and 78.3979 and 80.8371 and 80.8046 and 84.4497
- cAMP levels, co-stimulation with 1 μM forskolin and agonist (Fig. 1biii) (hA1R [2]; Log [Agonist] -11): 88.4 and 88.5187 and 87.9157 and 89.0024 and 88.907 and 88.1183 and 87.8424 and 87.9978 and 88.3592 and 88.3546 and 88.8294
- cAMP levels, co-stimulation with 1 μM forskolin and agonist (Fig. 1biii) (hA1R [2]; Log [Agonist] -12): 89.2835 and 89.2206 and 89.333 and 89.3233 and 89.2419 and 89.2129 and 89.2293 and 89.267 and 89.2665 and 89.3154 and 89.3
- cAMP levels, co-stimulation with 1 μM forskolin and agonist (Fig. 1biii) (hA1R [2]; Log [Agonist] -13): 89.2835 and 89.2206 and 89.333 and 89.3
- Range hA1R (hA1R [2]): 48.97 ± 0.7%
- membrane hyperpolarisation ([3]; CPA 300 nM in the presence of BnOCPA 300 nM): 2.75 ± 0.48 mV
- Ki (hA3R): > 100 µM

SMILES: OC[C@H]1O[C@@H](n2cnc3c(N[C@@H]4CCC[C@H]4O)ncnc32)[C@H](O)[C@@H]1O [HOCPA, (2 R,3 R,4 S,5 R)−2-(6-{[(1 R,2 R)−2-hydroxycyclopentyl]amino}−9H-purin-9-yl)−5-(hydroxymethyl)oxolane-3,4-diol]
- Ki (hA1R [1]; displacement of [3H]-DPCPX, CHO-K1-hA1R, read-out: pKi hA1R (converted)): 1.55 µM
- EC50 (hA1R:Goa): 0.339 µM
- Emax (hA1R:Goa): -29.8%
- Bias factor (Δ(τ/KA)) Goa (hA1R:Goa): 3.228
- IC50 (hA1R [2]): 0.000832 µM
- Range hA1R (hA1R [2]): 60.52 ± 1.5%
- membrane hyperpolarisation ([3]; HOCPA 300 nM): 5.3 ± 0.5 mV
- Ki (hA3R): 0.589 µM
